Laboratory results: PMC3140712 (2011)
Counter-ions that a name gives are not always drawn.

Target: P2Y1 receptor (Homo sapiens, UniProt P47900)
Assay: intracellular calcium mobilization
Format: cell-based

Sequence of P2Y1 receptor (P47900 whole entry): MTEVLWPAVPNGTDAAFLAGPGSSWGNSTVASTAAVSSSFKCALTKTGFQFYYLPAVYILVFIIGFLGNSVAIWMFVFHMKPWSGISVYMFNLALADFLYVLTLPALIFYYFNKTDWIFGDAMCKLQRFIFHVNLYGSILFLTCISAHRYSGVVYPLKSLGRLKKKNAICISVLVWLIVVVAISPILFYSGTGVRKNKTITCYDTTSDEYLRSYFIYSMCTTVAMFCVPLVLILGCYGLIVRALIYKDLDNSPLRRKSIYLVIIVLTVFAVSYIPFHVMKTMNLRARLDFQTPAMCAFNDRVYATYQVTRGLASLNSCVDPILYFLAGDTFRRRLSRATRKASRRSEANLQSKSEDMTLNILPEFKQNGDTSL

With `CSc1nc(N)c2ncn([C@H]3[C@H](O)[C@H](O)[C@]4(COP(=O)(O)OP(=O)(O)O)C[C@H]34)c2n1` [MRS2365, [[(1R,2R,3S,4R,5S)-4-[6-amino-2-(methylthio)-9H-purin-9-yl]-2,3-dihydroxybicyclo[3.1.0]hex-1-yl]methyl] diphosphoric acid mono ester trisodium salt] as the compound, how does the EC50 read?
Its EC50 is 5.28 ± 1.96 nM.
